The results in this text go back to patent publication US7018996B2, “Antibiotics AW998A, AW998B, AW998C and AW998D” (Wyeth Holdings Corporation, priority 2002, dated 2006).

Format in all cases: cell-based
The test system of one assay is S. aureus GC 1131 (MRSA). Description: MIC, broth dilution, S. aureus GC 1131 (MRSA). Particulars: Staphylococcus aureus, 18 hours at 35° C., read-out: Antimicrobial Activity (MIC). The method, then: (§1) The minimum inhibitory concentration (MIC), the lowest concentration of the antibiotic which inhibits growth of the test organism, is determined by the broth dilution method using Muller-Hinton II […] (Baltimore Biological Laboratories) following the recommendations of the National Committee for Clinical Laboratory Standards [Methods for dilution antimicrobial susceptibility tests for bacteria that grow aerobically, approved standard M7-A2, National Committee for Clinical Laboratory Standards, Villanova, Pa.].
(§2) An inoculum level of 5×10^5 CFU/mL, and a range of antibiotic concentrations (64–0.06 μg/mL) is used. The MIC is determined after the microtiter plates are incubated for 18 hours at 35° C. in an ambient air incubator. The test organisms include a spectrum of Gram-positive bacteria comprised of Staphylococcus sp., Streptococcus sp. and Enterococcus sp.
(§3) The in vitro antibacterial activity of AW998A, AW998B, AW998C and AW998D is determined against a spectrum of Gram-positive and Gram-negative bacteria by a standard broth dilution method. Serial dilution of the compounds are made in Mueller-Hinton broth and inoculated with a bacterial suspension. The lowest concentration of compound that inhibited the growth of a bacterial strain after 18 hours of incubation at 35° C. is reported as the minimal inhibitory concentration (MIC) for that strain.
(Dilution methods test growth across graded concentrations, often in twofold steps.)

The subject of assay [1] is E. faecalis GC 4555 (ATCC). Description: MIC, broth dilution, E. faecalis GC 4555 (ATCC). The settings on record: Enterococcus faecalis, 18 hours at 35° C., read-out: Antimicrobial Activity (MIC). Here is the method: as §1, §2, §3
Another assay has as its system E.coil GC 4560 (imp). Description: MIC, broth dilution, E.coil GC 4560 (imp). The settings on record: Escherichia coli, 18 h, read-out: Antimicrobial Activity (MIC). The method, then: as §1, §2
(§4) The test organisms also include a spectrum of Gram-negative bacteria comprised of E. coli GC, M. catarrhalis and H. influenzae.
as §3

For assay [2], the system named is M. catarrhalis GC 6907* (clinical). Kind of assay: MIC, broth dilution, M. catarrhalis GC 6907 (clinical). The settings on record: Moraxella catarrhalis, read-out: Antimicrobial Activity (MIC). The method, then:
as §1, §2, §4, §3

A further assay deals with S. pneumoniae GC 1894. Description: MIC, broth dilution, S. pneumoniae GC 1894. Particulars: Streptococcus pneumoniae, GC1894, 18 h, 18 hours at 35° C., read-out: Antimicrobial Activity (MIC). The method, then:
as §1, §2, §3

Assay [3] relates to H. influenzae GC 6896 <> (ATTC). Kind of assay: MIC, broth dilution, H. influenzae GC 6896 (ATTC). The settings on record: Haemophilus influenzae, read-out: Antimicrobial Activity (MIC). Here is the method: as §1, §2, §4, §3
In assay [4] the test system is E. faecalis GC 2242 (VRE). Description: MIC, broth dilution, E. faecalis GC 2242 (VRE). Particulars: Enterococcus faecalis, 18 hours at 35° C., read-out: Antimicrobial Activity (MIC). The method, then: as §1, §2, §3
Assay [5] deals with S. aureus GC 4543 (Smith). Kind of assay: MIC, broth dilution, S. aureus GC 4543 (Smith). The settings on record: Staphylococcus aureus, 18 hours at 35° C., read-out: Antimicrobial Activity (MIC). Here is the method: as §1, §2, §3
For assay [6], the system named is C. albicans GC 3066 (Yeast). Description: MIC, broth dilution, C. albicans GC 3066 (Yeast). The settings on record: Candida albicans, read-out: Antimicrobial Activity (MIC).
Assay [7] relates to B. subtilis GC 6344 (168). Kind of assay: MIC, broth dilution, B. subtilis GC 6344 (168). Particulars: Bacillus subtilis, 18 hours at 35° C., read-out: Antimicrobial Activity (MIC). Here is the method:
as §1, §2, §3

For another assay, the system named is E. coli GC 4559 (wt). Description: MIC, broth dilution, E. coli GC 4559 (wt). Particulars: Escherichia coli, read-out: Antimicrobial Activity (MIC). The method, then:
as §1, §2, §4, §3

Another assay has as its system S. aureus GC 2216 (ATCC). Kind of assay: MIC, broth dilution, S. aureus GC 2216 (ATCC). Particulars: Staphylococcus aureus, 18 hours at 35° C., read-out: Antimicrobial Activity (MIC). Here is the method:
as §1, §2, §3

Where [8] appears, read: S. pneumoniae GC 1894* (5% LHB).

In brackets after ≈: the same amount, converted by molar mass. Like-named read-outs stand apart in the source and are kept apart here. Bridge positions count the residues as written; N and C are the ends. Square brackets hold non-standard residues; d marks the D form. Peptide text beside a SMILES is read from it. * marks the point of attachment. Tetradecenoyl(2E,13-Me) = CC(C)CCCCCCCCC/C=C/C(=O)*; X1 = CC(C)CCCCCCCC/C=C/C(=O)*; Pip = O=C(O)[CH]1CCCCN1; Dap = NC[CH](N)C(=O)O Where only a bound is given, the exact number is not on record here.

Take `CCC(C)C1NC(=O)C(C(C)O)NC(=O)CNC(=O)C(CC(=O)O)NC(=O)CNC(=O)C(CC(=O)O)NC(=O)CNC(=O)C2CCCCN2C(=O)C(NC(=O)C(CC(=O)O)NC(=O)/C=C/CCCCCCCCCC(C)C)CNC(=O)C2CCCN2C1=O` (stereo not drawn) [AW998A] ({Tetradecenoyl(2E,13-Me)}-D[Dap][Pip]GDGDGTIP; lactam 2-C; configuration not given here): the MIC is 16 µg/mL (≈ 12.8 µM) with S. aureus GC 1131 (MRSA); 32 µg/mL (≈ 25.7 µM) in [1]; 32 µg/mL (≈ 25.7 µM) with E.coil GC 4560 (imp); above 128 µg/mL in [2] (M. catarrhalis GC 6907* (clinical), 18 hours at 35° C.); 4 µg/mL (≈ 3.21 µM) in the assay on S. pneumoniae GC 1894 (setting [8]); 2 µg/mL (≈ 1.6 µM) in the assay with S. pneumoniae GC 1894 (S. pneumoniae GC 1894+ (THY)). Besides, the MIC in assay [3] (H. influenzae GC 6896 <> (ATTC), 18 hours at 35° C.) was above 128 µg/mL; in assay [4], 64 µg/mL (≈ 51.3 µM); in assay [5], 8 µg/mL (≈ 6.41 µM); in assay [6] (C. albicans GC 3066 (Yeast), 18 hours at 35° C.) it was 128 µg/mL (≈ 103 µM); in assay [7] it was 32 µg/mL (≈ 25.7 µM); in the assay on E. coli GC 4559 (wt) (E. coli GC 4559 (wt), 18 hours at 35° C.), above 128 µg/mL. For the same molecule, the MIC in the assay on S. aureus GC 2216 (ATCC) came out at 8 µg/mL (≈ 6.41 µM).

`CCC(C)C1NC(=O)C(C(C)O)NC(=O)CNC(=O)C(CC(=O)O)NC(=O)CNC(=O)C(CC(=O)O)NC(=O)CNC(=O)C2CCCCN2C(=O)C(NC(=O)C(CC(=O)O)NC(=O)/C=C/CCCCCCCCC(C)C)CNC(=O)C2CCCN2C1=O` (stereo not drawn) [AW998C] (X1-D[Dap][Pip]GDGDGTIP; lactam 2-C; configuration not given here): the MIC in the assay with S. aureus GC 1131 (MRSA) was 128 µg/mL (≈ 104 µM); in [1], 128 µg/mL (≈ 104 µM); with E.coil GC 4560 (imp), above 128 µg/mL; in [2] (18 h), above 128 µg/mL; in the assay with S. pneumoniae GC 1894 (setting [8]), 8 µg/mL (≈ 6.49 µM); in the assay on S. pneumoniae GC 1894 (S. pneumoniae GC 1894+ (THY)), 64 µg/mL (≈ 51.9 µM). The MIC in [3] (18 h) is above 128 µg/mL; in [4], 128 µg/mL (≈ 104 µM); in [5] it was 64 µg/mL (≈ 51.9 µM); in [6] (18 h), above 128 µg/mL; in [7], 128 µg/mL (≈ 104 µM); in the assay on E. coli GC 4559 (wt) (18 h) it was above 128 µg/mL. For the same molecule, the MIC in the assay with S. aureus GC 2216 (ATCC) is 64 µg/mL (≈ 51.9 µM).

Regarding `CC(C)CCCCCCCCC/C=C/C(=O)NC(CC(=O)O)C(=O)NC1CNC(=O)C2CCCN2C(=O)C(C(C)C)NC(=O)C(C(C)O)NC(=O)CNC(=O)C(CC(=O)O)NC(=O)CNC(=O)C(CC(=O)O)NC(=O)CNC(=O)C2CCCCN2C1=O` (stereo not drawn) [AW998D] ({Tetradecenoyl(2E,13-Me)}-D[Dap][Pip]GDGDGTVP; lactam 2-C; configuration not given here), the MIC is 128 µg/mL (≈ 104 µM) in the assay with S. aureus GC 1131 (MRSA); 128 µg/mL (≈ 104 µM) in assay [1]; above 128 µg/mL in the assay with E.coil GC 4560 (imp); above 128 µg/mL in [2] (18 h); 16 µg/mL (≈ 13 µM) with S. pneumoniae GC 1894 (setting [8]); 128 µg/mL (≈ 104 µM) in the assay with S. pneumoniae GC 1894 (S. pneumoniae GC 1894+ (THY)). Also, the MIC in [3] (18 h) is above 128 µg/mL; in assay [4], 128 µg/mL (≈ 104 µM); in [5], 128 µg/mL (≈ 104 µM); in [6] (18 h), above 128 µg/mL; in assay [7], 128 µg/mL (≈ 104 µM); with E. coli GC 4559 (wt) (18 h) it was above 128 µg/mL. Also, in the assay with S. aureus GC 2216 (ATCC), the MIC is 128 µg/mL (≈ 104 µM).
